Measured values: publication PMC2453323 (PLoS Pathogens, 2008)

Legend:
[1] = target: neuraminidase of A(H1N1) clinical isolate 1951/06 (Influenza A virus, UniProt B4URD9); format: biochemical
[2] = target: neuraminidase of the 5 pre-2007–2008 H1N1 viruses (Influenza A virus, UniProt B4URD9); format: biochemical; details: read-out: Mean Km, group Mean
[3] = target: neuraminidase of A/Solomon Islands/3/2006(H1N1) (SI06) (Influenza A virus, UniProt B4URD9); format: biochemical
[4] = target: neuraminidase of A(H1N1) clinical isolate 0497/07 (Influenza A virus (H1N1), UniProt D5F1R0); format: biochemical
[5] = target: neuraminidase of A(H1N1) clinical isolate 0650/04 (Influenza A virus (H1N1), UniProt B4YYP0); test: biochemical
[6] = target: neuraminidase of A(H1N1) clinical isolate 0814/07 (Influenza A virus, UniProt D5F1R0); format: biochemical
[7] = target: neuraminidase of A(H1N1) clinical isolate 0692/07 (Influenza A virus (H1N1), UniProt A8C8J7); format: biochemical
[8] = target: neuraminidase of A(H1N1) clinical isolate 0611/07 (Influenza A virus (H1N1), UniProt D5F1R0); format: biochemical
[9] = target: neuraminidase of A(H1N1) clinical isolate 1149/08 (Influenza A virus, UniProt G3LYQ1); format: biochemical
[10] = target: neuraminidase of the 6 sensitive H1N1 viruses from the 2007–2008 season (Influenza A virus, UniProt D5F1R0); format: biochemical; details: read-out: Mean Km, group Mean
[11] = target: neuraminidase of A/New Caledonia/20/99(H1N1) (NC99) (Influenza A virus, UniProt Q7TG96); test: biochemical; format: biochemical
[12] = target: neuraminidase of A(H1N1) clinical isolate 0286/07 (Influenza A virus (H1N1), UniProt D5F1R0); format: biochemical
[13] = target: neuraminidase of A(H1N1) clinical isolate 0974/08 (Influenza A virus, UniProt G3LYQ1); format: biochemical

Compound	Km [1] [µM]	Km [2] [µM]	Km [3] [µM]	Km [4] [µM]	Km [5] [µM]	Km [6] [µM]	Km [7] [µM]	Km [8] [µM]	Km [9] [µM]	Km [10] [µM]	Km [11] [µM]	Km [12] [µM]	Km [13] [µM]	Ki [5] [pM]	Ki [11] [pM]
CC(=O)N[C@@H]1[C@@H](O)C[C@](Oc2ccc3c(C)cc(=O)oc3c2)(C(=O)O)O[C@H]1C(O)[C@H](O)CO (stereo partly shown) [MUNANA]	29.5	28	25.1	7.5	25.6	9	31.5	8	10.4	9 ± 1.2	27.4	8.5	10.4		
CC(=O)N[C@H]1[C@H]([C@H](O)[C@H](O)CO)OC(C(=O)O)=C[C@@H]1N=C(N)N [Zana, zanamivir]														200	
CCOC(=O)C1=C[C@@H](OC(CC)CC)[C@H](NC(C)=O)[C@@H](N)C1 [OC, oseltamivir]														200	190
